“Also recorded” adds a separate entry of the source.
Legend:
Type in all cases: physicochemical
[1] = Compression study (hydraulic press, XRPD)
Procedure: About 10 mg of […] Form C was compressed for 5 minutes under 5 MPa or 10 MPa with a hydraulic press. Potential form change and degree of crystallinity were evaluated by XRPD.

[2] = Water sorption by dynamic vapor sorption (DVS) at 25° C.
Procedure: Water sorption behavior of […] Form C was investigated using dynamic vapor sorption (DVS) at 25° C. The relative humidity (RH) was increased from 0-80%, with a minimum equilibration time of 60 min and a maximum equilibration time of 360 min.

[3] = Dry grinding study (XRPD); details: ground manually with mortar and pestle for 3 min
Procedure: About 10 mg of […] Form C was ground manually with a mortar and a pestle for 3 min. Potential form change and degree of crystallinity were evaluated by XRPD.

[4] = Wet granulation simulation (XRPD); details: ethanol as the granulation solvent, dried 10 min at ambient conditions
Procedure: Ethanol was added dropwise to about 10 mg of M1P Form C until the sample was wetted sufficiently. The wet sample was ground gently in a mortar and a pestle. Post granulation, the sample was dried under ambient conditions for 10 min. Potential form change and degree of crystallinity were evaluated by XRPD.

[5] = Water activity experiments to determine relative stability of Forms A, B and C in water/EtOH systems (XRPD)
Procedure: […]. Water activity experiments were conducted at 25° C. in several different water/EtOH systems to determine relative stability of M1P Forms A, B and C under these conditions.
About 5 mg each of M1P Forms A, B, and C were combined and added to 0.2 mL saturated solutions of a water/EtOH system. The resulting suspensions were stirred at 5° C., 25° C., or 50° C. for 4 days or 11 days. After 4 or 11 days, the solids (wet cakes) were isolated by centrifugation filtration and analyzed by XRPD to determine which Form(s) remained.

[6] = 12-month stability, polymorph characterization by XRPD and purity by chromatography; details: −20° C., 25° C./60% RH, 40° C./75% RH, 5° C.
Procedure: […] Form C was produced in accordance with the examples above. XRPD was used on samples taken at 1, 3, 6, 9 and 12 months, and tested under four conditions: • -20° C.±5° C., • 25° C.±2° C. at 60% relative humidity (RH)±5% RH, • 40° C.±2° C. at 75% RH±5% RH and • 5° C.±3° C.

O=P([O-])([O-])O[C@H]1O[C@H](CO)[C@@H](O)[C@H](O)[C@@H]1O.[K+].[K+] [Form C]
form change by XRPD ([1]; compressed for 5 minutes under 5 MPa): no form change was observed
degree of crystallinity by XRPD ([1]; compressed for 5 minutes under 5 MPa and 10 MPa): crystallinity decreased
form change by XRPD ([1]; compressed for 5 minutes under 10 MPa): no form change was observed
form change by XRPD following the DVS experiment ([2]; 80% RH at 25° C.): no form change was observed
H2O absorbed ([2]; DVS, 25° C., 80% RH): 1.9 % (w/w)
hygroscopicity ([2]; DVS, 25° C., RH 0-80%): only slightly hygroscopic; also recorded: low hygroscopicity
% Water absorption ([2]; DVS, 25° C., relative humidity 0%): 0.01%
% Water absorption ([2]; DVS, 25° C., relative humidity 10%): 0.51%
% Water absorption ([2]; DVS, 25° C., relative humidity 20%): 0.59%
% Water absorption ([2]; DVS, 25° C., relative humidity 30%): 0.63%
% Water absorption ([2]; DVS, 25° C., relative humidity 40%): 0.65%
% Water absorption ([2]; DVS, 25° C., relative humidity 50%): 0.69%
% Water absorption ([2]; DVS, 25° C., relative humidity 60%): 0.73%
% Water absorption ([2]; DVS, 25° C., relative humidity 70%): 0.82%
% Water absorption ([2]; DVS, 25° C., relative humidity 80%): 1.93%
degree of crystallinity by XRPD [3]: crystallinity decreased
form change by XRPD [3]: no form change
form change by XRPD [4]: no form change
stability over water activity range [5]: stable over a wide water activity range
changes to the polymorphic form by XRPD ([6]; 1, 3, 6, 9 and 12 months): no observed changes to the polymorphic form
changes in purity by chromatography ([6]; 12-month stability): no substantial changes observed

— patent US20260015376A1, “CONTINUOUS FLOW METHODS FOR PRODUCING MANNOSE-1-PHOSPHATE, POLYMORPHS OF MANNOSE-1-PHOSPHATE, AND COMPOSITIONS AND USES RELATED THERETO” (Glycomine, Inc., priority 2022, published 2026)
